Counter-ions that a name gives are not always drawn. Like-named read-outs stand apart in the source and are kept apart here.
Tests used:
MCT cells [1] = test system: MCT cells
Experimental: (§4) A mouse cortical tubule cell line (MCT) was used for the study. Cells were maintained in RPMI 1640 medium (Gibco, Madrid, Spain) supplemented with 10% fetal bovine serum (FBS, Gibco, Madrid, Spain), 500 U/mL penicillin, 50 mg/mL streptomycin (Gibco, Madrid, Spain) and 1 mM L-glutamine. […] During the treatments, cells were photographed under live cell, light microscope (Axiovert 200M, Zeiss; and Nikon Eclipse TS100, Barcelona, Spain) for visual inspection. At the end, cell extracts were obtained in extraction buffer (25 mM PIPES, pH7; 25 mM KCI; 5 mM EGTA; 0,5% NP-40, and a mixture of protease inhibitors consisting of 1 mM phenylsulfonyl fluoride, 1 µg/mL leupeptine, and 1 µg/mL aprotinin). Protein content was determined with a commercial kit (Bio-Rad, Madrid, Spain) based in the Lowry method.
(§5) Caspase activity. Twenty micrograms of protein from cell extracts were incubated with 100 µL reaction buffer (50 mM HEPES, pH7.4; 100 mM NaCl; 1 mM EDTA; 0.1% 3-[3-(cholamidopropyl)-dimethylammonio]-1-propane sulfonate; 10% sucrose; and 5 mM DTT) containing 100 µM of the fluorogenic caspase substrate rhodamine 110, bis-(N-CBZ-L-aspartyl-L-glutamyl-L-valyl-L-aspartic acidamide (Z-DEVD)2Rh110; Anaspec, Fremont, CA, USA)) at 37 °C for 30 min in a Fluoroskan Ascent FL fluorometer (Thermo, Rockford, IL, USA), and fluorescence intensity was measured every 3 min at 538 nm, upon excitation at 485 nm. Caspase activity was calculated from the slope of the linear relationship between fluorescence intensity and time.

MCT cells [2] = test system: MCT cells; remark: listed apart in the source
Experimental: Where not otherwise indicated, reagents were purchased from Sigma (Madrid, Spain). A mouse cortical tubule cell line (MCT) was used for the study. Cells were maintained in RPMI 1640 medium (Gibco, Madrid, Spain) supplemented with 10% fetal bovine serum (FBS, Gibco, Madrid, Spain), 500 U/mL penicillin, 50 mg/mL streptomycin (Gibco, Madrid, Spain) and 1 mM L-glutamine. […] During the treatments, cells were photographed under live cell, light microscope (Axiovert 200M, Zeiss; and Nikon Eclipse TS100, Barcelona, Spain) for visual inspection.
MTT assay. Viable cell number was comparatively estimated by incubating cell cultures with 0.5 mg/mL 3-[4,5-dimethylthiazol-2-yl]-2,5-diphrnyl tetrazolium bromide (MTT) for 4h. Then, 10% SDS in 0.01 M HCL was added in 1:1 (vol/vol) and left overnight at 37 °C. Finally, absorbance was measured at 570 nm as an index of viable cell number.

MCT cells [3] = test system: MCT cells; remark: listed apart in the source
Experimental: (§6) Reagents, cells, and protocols. Where not otherwise indicated, reagents were purchased from Sigma (Madrid, Spain). A mouse cortical tubule cell line (MCT) was used for the study. Cells were maintained in RPMI 1640 medium (Gibco, Madrid, Spain) supplemented with 10% fetal bovine serum (FBS, Gibco, Madrid, Spain), 500 U/mL penicillin, 50 mg/mL streptomycin (Gibco, Madrid, Spain) and 1 mM L-glutamine. […] During the treatments, cells were photographed under live cell, light microscope (Axiovert 200M, Zeiss; and Nikon Eclipse TS100, Barcelona, Spain) for visual inspection. At the end, cell extracts were obtained in extraction buffer (25 mM PIPES, pH7; 25 mM KCI; 5 mM EGTA; 0,5% NP-40, and a mixture of protease inhibitors consisting of 1 mM phenylsulfonyl fluoride, 1 µg/mL leupeptine, and 1 µg/mL aprotinin). Protein content was determined with a commercial kit (Bio-Rad, Madrid, Spain) based in the Lowry method.

Male Wistar rats [4] = assay: Rat models of AKI: urinary markers by Western blot; format: in vivo
Text: (§1) Caspase activity. […] Western blot.
(§2) Rat models of AKI. Male Wistar rats (220-240 g) were housed under controlled experimental conditions and allowed free access to regular chow and water. […] Rats were allocated in metabolic cages to obtain 24-hour, individual urine samples. Blood was drawn with a needle from the tail vein, and plasma was obtained by centrifugation and, at the end of the treatments, kidneys were perfused with heparinized saline and immediately dissected. Half of the kidney was fixed in paraformaldehyde for histological studies, and the rest was frozen at -80 °C for biochemical analysis.

MCT cells [5] = assay: Caspase (DEVDase) activity in cell extracts; format: cell-based, mouse; conditions: cisplatin, 18 h, concentration-dependent
Text: (§3) Reagents, cells, and protocols.
as §1

MCT cells [6] = assay: Western blot / 2D proteomic analysis of culture medium and cell extracts; conditions: 18 h, cisplatin 0-30 µM, cycloheximide 50-800 µM
Experimental: as §4, §5

MCT cells [7] = assay: RT-qPCR analysis of gene expression; format: cell-based, mouse; conditions: 0-30 µM cisplatin, 18 h, normalized with RPS13
Experimental: as §3
RT-qPCR analysis. Total RNA was isolated using Nucleospin RNAII (Macherey-Nagel, Düren, Germany). First-strand cDNA was generated from 1 µg of total RNA using poly-dT as primer with the M-MLV reverse transcriptase (Promega, Barcelona, Spain). Real-time PCR (qPCR) was performed in triplicate. In a total reaction volume of 20 µL containing 1 µL of cDNA, 0.4 µM of each primer and 1x iQSybrGreen Supermix (Bio-Rad), with initial denaturation at 95 °C for 5 min followed by 40 cycles of 30 sec at 95 °C, and 30 sec at 65 °C, and finally, one cycle of 30 sec at 72 °C. Threshold cycle (Ct) values were obtained. The sequences of TCP1-eta used were: sense 5'-[…]-3' (SEQ ID NO: 1); anti-sense 5'-[…]-3' (SEQ ID NO: 2); and RPS13: sense 5'-[…]-3' (SEQ ID NO: 3); anti-sense 5'-[…]-3' (SEQ ID NO: 4). Standard curves were run for each transcript to assure exponential amplification and to rule out non-specific amplification. Changes in the expression level were calculated following normalization with RPS13. The reactions were run on an iQ5 Real-Time PCR detection system (Bio-Rad, Madrid, Spain).

MCT cells [8] = assay: Apoptotic cells / death phenotype by light microscopy; conditions: medium without serum, 18 h, cisplatin 0-30 µM, cycloheximide 50-800 µM
Experimental: as §6

Male Wistar rats [9] = assay: Rat models of AKI: renal histopathology; format: in vivo; conditions: hematoxylin and eosin, cisplatin 5 mg/kg i.p., gentamicin 150 mg/kg per day i.p. for 6 days
Text: as §2
Renal histopathology. Paraformaldehyde-fixed tissue samples were immersed in paraffin, cut into […] slices and stained with hematoxylin and eosin.

MCT cells [10] = assay: Internucleosomal DNA fragmentation; format: cell-based, mouse; conditions: cisplatin, 18 h, concentration-dependent
Experimental: as §3
DNA fragmentation. DNA fragmentation was determined with the commercial kit Cell Death Detection Plus (Roche Diagnostics, Barcelona, Spain) in 10 µg of protein from each cell extract.

Male Wistar rats [11] = assay: Rat models of AKI: renal function (plasma creatinine); format: in vivo; conditions: cisplatin single i.p. 5 mg/kg, gentamicin i.p. 150 mg/kg per day for 6 days
Experimental: Renal function. Renal function was monitored by means of plasma creatinine and urea and urinary protein concentration, which were determined with commercial colorimetric kits (Quantichrom Creatinine and Quantichrom Urea Assay Kits, BioAssay Systems, Hayward, CA, USA), according to the manufacturer's instructions.

[12] = rats, cisplatin single i.p. 5 mg/kg, gentamicin i.p. 150 mg/kg per day for 6 days, Western blot

C[C@@H]1C[C@@H]([C@H](O)CC2CC(=O)NC(=O)C2)C(=O)[C@@H](C)C1 [Cycloheximide, cycloheximide]
TCP1-eta in the culture medium (MCT cells [1]): increases TCP1-eta secretion to the culture medium | executioner caspase 3 (active caspase 3, p19 fragment) (MCT cells [1]): executioner caspase 3 activation | cell viability (MCT cells [2]): reduces cell viability | number of apoptotic cells / apoptotic phenotype (MCT cells [3]): induces apoptosis

O=C(O)/C=C\C(=O)O [sodium maleate]
urinary TCP1-eta (Male Wistar rats [4]; normal rats, single i.v. injection of sodium maleate 400 mg/kg): TCP1-eta is excreted with the urine

N.N.[Cl][Pt][Cl] [cisplatin]
caspase (DEVDase) activity (MCT cells [5]): increased | TCP1-eta in the culture medium (MCT cells [6]): increased with increasing concentrations of cisplatin | urinary NGAL (Male Wistar rats [4]; [12]): significantly increases | urinary TCP1-eta (Male Wistar rats [4]; [12]): significantly increases | TCP1-eta gene expression (MCT cells [7]): progressive TCP1-eta gene induction with increasing concentrations of the drug | number of apoptotic cells / apoptotic phenotype (MCT cells [8]): increased the number of apoptotic cells | pattern of renal damage (region affected) (Male Wistar rats [9]): both the cortex and the outer medulla | internucleosomal DNA fragmentation (MCT cells [10]): increased

gentamicin
urinary NGAL (Male Wistar rats [4]; [12]): significantly increases | urinary TCP1-eta (Male Wistar rats [4]; [12]): significantly increases | Plasma creatinine (Male Wistar rats [11]): significantly increases | pattern of renal damage (region affected) (Male Wistar rats [9]): mostly the cortex and, to a lesser extent, the medulla

Source: EP3736570A1, “METHOD FOR THE DIAGNOSIS, SUB-CLASSIFICATION AND PROGNOSIS OF ACUTE KIDNEY INJURY BY DETECTING CCT7” (Fundación Instituto de Estudios de Ciencias de la Salud de …, priority 2019, dated 2020)
